How the values were obtained:
Male wistar rats = test: Carbon tetrachloride induced hepatotoxicity in rats (serum AST and ALT); type: in vivo, rat; conditions: for Protection against CCl4 induced toxicity: orally, rats
Protocol: Carbon tetrachloride is a classical method to induce free radical mediated hepatotoxicity. In order to evaluate the free radical mediated hepatotoxicity and heptoprotective properties in the compound (−)-wikstromol, this method was employed. Male wistar rats were selected for study. The compound was dissolved in a small amount of DMSO and reconstituted in gum acacia/water. The compound was given one hour before CCl4 administration to the over-night fasted rats in a dose of 250 mg/kg-body weight, orally. After one hour, a mixture of CCl4 and liquid paraffin (1:1, v/v) in the dose of 2.5 ml/kg was given orally. Fasting was continued. However, water was provided ad-libitum. After 5 hrs of CCl4 administration, blood was taken out from the retroorbital plexus. Serum aspartase transaminase and serum alanine transaminase was measured as a marker of hepatotoxicity.
Carbon tetrachloride induced toxicity was repeated as referred in the example 2 by changing the dosage level to 300 mg/kg-body weight, orally. Fasting was continued. However, water was provided ad-libitum. After 5hrs of CCl4 administration, blood was taken out from the retroorbital plexus. Serum aspartase transaminase and serum alanine transaminase was measured as a marker of hepatotoxicity.

[1] = tested on: p-388 lymphocyte leukemia; conditions: cited from earlier work
HIV = conditions: cited from earlier work
[2] = serum, 5 hours after CCl4 administration, compound 250 mg/kg orally one hour before CCl4 2.5 ml/kg, mean ± SD

With `COc1cc(C[C@@H]2COC(=O)[C@@]2(O)Cc2ccc(O)c(OC)c2)ccc1O` [(−)-wikstromol, 4,4^1,8-trihydroxy-3,3^1-dimethoxyliganan-9,9^1-olide] the “Protection against CCl4 induced toxicity” value (Male wistar rats; 250 mg/kg-body weight) was “significantly prevented CCl4 induced toxicity”, the “Protection against CCl4 induced toxicity” value (Male wistar rats; 300 mg/kg-body weight) was “shows significant activity and prevented CCl4 induced toxicity” and the Hepatoprotective effectiveness (Male wistar rats; dosage of 250 to 300 mg/kg of body weight) was “highly effective”. For the same compound, the “ALT (U/L) Before” value (Male wistar rats; serum alanine transaminase before oral administration of compound and CCl4, mean ± SD, 250 mg/kg group) was 42 ± 7 U/L, the “AST (U/L) Before” value (Male wistar rats; serum aspartate transaminase before oral administration of compound and CCl4, mean ± SD, 250 mg/kg group) was 281 ± 91 U/L and the “ALT (U/L) After” value (Male wistar rats; [2]) was 188 ± 66 U/L. For the same compound, the “AST (U/L) After” value (Male wistar rats; [2]) was 557 ± 126 U/L, the “Activity against p-388 lymphocyte leukemia” value [1] was “active” and the Anti-HIV activity (HIV) was “anti-HIV activity”.

Source: patent US6537593B2, “Plant phenol as new hepatoprotective agents” (Council of Scientific and Industrial Research, priority 2000, dated 2003)
